Laboratory results as given in US11850237B2, “Compounds and methods for treating influenza” (priority 2009, dated 2023).
≈ marks a conversion by molar mass, not a printed value. Read-outs that look alike come from different tables or passages of the source.

Columns and labels:
[1] = system: H1N1 A/PR/8/34 (PR8); assay: microbe, parasite or virus in culture; type: cell-based, influenza A virus; details: for EC50 / EC90: Influenza A virus; for EC90: read-out: Virus Yield EC90; for antiviral activity against PR8, overall rating: PR8 influenza A virus, Table 1
[2] = system: MDCK cells; assay: Toxicity / cell viability by MTT in uninfected MDCK cells; type: cell-based, canine; details: MDCK cells, MTT
Experimental: (§1) Cell culture, treatment and transfection-Madin-Darby canine kidney (MDCK) cells, and human A549 alveolar type II-like epithelial, Jurkat Tlymphoblastoid and U397 monocytic leukemia cells were grown at 37° C. in a 5% CO2 atmosphere in RPMI 1640 (Invitrogen), supplemented with 10% fetal calf serum (FCS), 2 mM glutamine and antibiotics. Test compounds were added immediately after 1-hour adsorption period, and kept in the culture medium for the entire time of the experiment, unless differently specified. […] Cell viability was determined by the 3-(4,5-dimethylthiazol-2-yl)-2,5-diphenyltetrazolium bromide (MTT) to MTT formazan conversion assay (Sigma-Aldrich) as described previously. Microscopical examination of mock-infected or virus-infected cells was performed using a Leica DM-IL microscope and images were captured on a Leica DC 300 camera using Leica Image-Manager500 software.

[3] = target: viral hemagglutinin (HA0) (Influenza A virus, UniProt P03452); type: cell-based
[4] = system: H1N1 A/PR/8/34 (PR8) virus; assay: microbe, parasite or virus in culture; type: cell-based, influenza A virus; details: for PR8 Yield: Nitazoxanide 0 μg/ml
[5] = system: H1N1 A/PR/8/34 (PR8) virus; assay: microbe, parasite or virus in culture; type: cell-based, influenza A virus; details: oseltamivir alone at test concentrations up to 1
[6] = Toxicity / cell viability by MTT in uninfected MDCK cells; type: cell-based, canine; details: dog, uninfected MDCK cells; uninfected cells
Experimental: as §1

[7] = PR8, MDCK cells, read-out: Virus Yield EC50
[8] = MDCK, 24 h, read-out: EC50, inhibition of virus replication

Chain of viral hemagglutinin (HA0) (P03452 18-565 limits assumed): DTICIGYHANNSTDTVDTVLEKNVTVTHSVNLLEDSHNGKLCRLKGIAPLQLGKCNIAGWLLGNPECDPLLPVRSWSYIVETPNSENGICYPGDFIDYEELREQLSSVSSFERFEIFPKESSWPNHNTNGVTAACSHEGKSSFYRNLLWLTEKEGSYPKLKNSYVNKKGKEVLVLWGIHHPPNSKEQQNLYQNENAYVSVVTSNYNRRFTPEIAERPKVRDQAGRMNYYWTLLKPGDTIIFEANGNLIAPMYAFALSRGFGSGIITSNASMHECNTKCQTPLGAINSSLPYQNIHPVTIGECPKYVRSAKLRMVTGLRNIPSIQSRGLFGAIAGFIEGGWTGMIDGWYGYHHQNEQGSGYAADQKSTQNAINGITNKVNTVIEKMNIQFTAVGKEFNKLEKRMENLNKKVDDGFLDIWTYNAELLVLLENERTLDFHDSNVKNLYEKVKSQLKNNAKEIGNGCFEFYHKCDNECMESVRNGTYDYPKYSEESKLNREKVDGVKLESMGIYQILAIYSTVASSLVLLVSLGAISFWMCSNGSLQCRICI

## O=C(Nc1nc(S(=O)(=O)C2CCCCC2)cs1)c1ccccc1O [Compound 39]
[1]; [7]
  EC50: 10 µg/mL (≈ 27.3 µM)
[1]; PR8, MDCK cells
  EC90: 30 µg/mL (≈ 81.9 µM)
[2]
  Toxicity LD50 (MTT): >50 µg/mL

## O=C(Nc1ncc([N+](=O)[O-])s1)c1ccccc1[O-].[Na+] [Compound 3, tizoxanide sodium salt]
[1]; [7]
  EC50: 0.4 µg/mL
[1]; PR8, MDCK cells
  EC90: 2.5 µg/mL
[1]
  antiviral activity against PR8, overall rating: potent and selective
[2]
  Toxicity LD50 (MTT): >50 µg/mL

## tunicamycin [TM, reference compound]
[3]
  HA0 glycosylation (glucosamine, mannose incorporation): completely prevented HA0 glycosylation
  intracellular HA0 levels / accumulation: caused a decrease in HA0 accumulation

## CC(=O)Oc1ccccc1C(=O)Nc1nc([S+](C)[O-])cs1 (centres unmarked) [Compound 29]
[1]; [7]
  EC50: 10 µg/mL (≈ 30.8 µM)
[1]; PR8, MDCK cells
  EC90: > 50 µg/mL
[2]
  Toxicity LD50 (MTT): >50 µg/mL

## CC(=O)N[C@H]1[C@H]([C@H](O)[C@H](O)CO)OC(C(=O)O)=C[C@@H]1N=C(N)N [Zanamivir]
[4]; Influenza A virus, zanamivir alone, PR8, MDCK cells, read-out: EC50
  EC50: 1000 nM
[4]; Zanamivir 0.01 μM
  PR8 Yield: 48 HAU/ml
[4]; Zanamivir 0.1 μM
  PR8 Yield: 48 HAU/ml
[4]; Zanamivir 1 μM
  PR8 Yield: 24 HAU/ml
[4]; zanamivir alone at 0.1 μM
  effect on viral replication: had no effect
[4]; zanamivir alone at the highest test concentration of 1
  reduction (inhibition) of virus yield: 50%

## O=C(Oc1ccccc1C(=O)Nc1ncc([N+](=O)[O-])s1)c1ccccc1 [Compound 17]
[1]; [7]
  EC50: 3 µg/mL (≈ 8.12 µM)
[1]; PR8, MDCK cells
  EC90: 9 µg/mL (≈ 24.4 µM)
[2]
  Toxicity LD50 (MTT): >50 µg/mL

## CC(C)S(=O)(=O)c1csc(NC(=O)c2ccccc2O)n1 [Compound 37]
[1]; [7]
  EC50: 0.6 µg/mL (≈ 1.84 µM)
[1]; PR8, MDCK cells
  EC90: 15 µg/mL (≈ 46 µM)
[1]
  antiviral activity against PR8, overall rating: potent and selective
[2]
  Toxicity LD50 (MTT): >50 µg/mL

## CC(=O)Oc1ccc(C(=O)Nc2nc(S(C)(=O)=O)cs2)cc1 [Compound 34]
[1]; [7]
  EC50: > 50 µg/mL
[1]; PR8, MDCK cells
  EC90: > 50 µg/mL
[2]
  Toxicity LD50 (MTT): >50 µg/mL

## CCCCS(=O)(=O)c1cnc(NC(=O)c2ccccc2OC(C)=O)s1 [Compound 59]
[1]; [7]
  EC50: 5 µg/mL (≈ 13.1 µM)
[1]; PR8, MDCK cells
  EC90: 30 µg/mL (≈ 78.4 µM)
[2]
  Toxicity LD50 (MTT): >50 µg/mL

## CCOC(=O)Oc1ccccc1C(=O)Nc1ncc([N+](=O)[O-])s1 [Compound 15]
[1]; [7]
  EC50: 1 µg/mL (≈ 2.96 µM)
[1]; PR8, MDCK cells
  EC90: 7 µg/mL (≈ 20.8 µM)
[2]
  Toxicity LD50 (MTT): 30 µg/mL

## CS(=O)(=O)c1csc(NC(=O)c2ccc(O)cc2)n1 [Compound 35]
[1]; [7]
  EC50: > 50 µg/mL
[1]; PR8, MDCK cells
  EC90: > 50 µg/mL
[2]
  Toxicity LD50 (MTT): >50 µg/mL

## CC(=O)Oc1ccc(C(=O)Nc2ncc(S(C)(=O)=O)s2)cc1 [Compound 63]
[1]; [7]
  EC50: 10 µg/mL (≈ 29.4 µM)
[1]; PR8, MDCK cells
  EC90: > 50 µg/mL
[2]
  Toxicity LD50 (MTT): >50 µg/mL

## CS(=O)(=O)c1cnc(NC(=O)c2ccccc2[O-])s1.[Na+] [Compound 54]
[1]; [7]
  EC50: 10 µg/mL
[1]; PR8, MDCK cells
  EC90: > 50 µg/mL
[2]
  Toxicity LD50 (MTT): >50 µg/mL

## CC(=O)Oc1cccc(C(=O)Nc2nc(S(C)(=O)=O)cs2)c1 [Compound 31]
[1]; [7]
  EC50: > 50 µg/mL
[1]; PR8, MDCK cells
  EC90: > 50 µg/mL
[2]
  Toxicity LD50 (MTT): >50 µg/mL

## CCOC(=O)C1=C[C@@H](OC(CC)CC)[C@H](NC(C)=O)[C@@H](N)C1 [oseltamivir, reference compound]
[5]
  reduction (inhibition) of virus yield: did not observe reduction

## CS(=O)(=O)c1cnc(NC(=O)c2ccc(O)cc2)s1 [Compound 64]
[1]; [7]
  EC50: > 50 µg/mL
[1]; PR8, MDCK cells
  EC90: > 50 µg/mL
[2]
  Toxicity LD50 (MTT): >50 µg/mL

## CSc1csc(NC(=O)c2ccc(OC(C)=O)cc2)n1 [Compound 33]
[1]; [7]
  EC50: > 50 µg/mL
[1]; PR8, MDCK cells
  EC90: > 50 µg/mL
[2]
  Toxicity LD50 (MTT): >50 µg/mL

## CCC(=O)Oc1ccccc1C(=O)Nc1ncc([N+](=O)[O-])s1 [Compound 16]
[1]; [7]
  EC50: 1 µg/mL (≈ 3.11 µM)
[1]; PR8, MDCK cells
  EC90: 8 µg/mL (≈ 24.9 µM)
[2]
  Toxicity LD50 (MTT): 20 µg/mL

## CC(C)COC(=O)Oc1ccccc1C(=O)Nc1ncc([N+](=O)[O-])s1 [Compound 14]
[1]; [7]
  EC50: 1 µg/mL (≈ 2.74 µM)
[1]; PR8, MDCK cells
  EC90: 8 µg/mL (≈ 21.9 µM)
[2]
  Toxicity LD50 (MTT): 20 µg/mL

## CC(=O)Oc1ccccc1C(=O)Nc1nc(S(=O)(=O)C(C)C)cs1 [Compound 36]
[1]; [7]
  EC50: 1 µg/mL (≈ 2.71 µM)
[1]; PR8, MDCK cells
  EC90: 8 µg/mL (≈ 21.7 µM)
[1]
  antiviral activity against PR8, overall rating: potent and selective
[2]
  Toxicity LD50 (MTT): >50 µg/mL

## C[S+]([O-])c1csc(NC(=O)c2ccccc2O)n1 (centres unmarked) [Compound 30]
[1]; [7]
  EC50: 10 µg/mL (≈ 35.4 µM)
[1]; PR8, MDCK cells
  EC90: > 50 µg/mL
[2]
  Toxicity LD50 (MTT): >50 µg/mL

## CC(=O)Oc1cccc(C(=O)Nc2ncc(S(C)(=O)=O)s2)c1 [Compound 65]
[1]; [7]
  EC50: > 50 µg/mL
[1]; PR8, MDCK cells
  EC90: > 50 µg/mL
[2]
  Toxicity LD50 (MTT): >50 µg/mL

## CS(=O)(=O)c1csc(NC(=O)c2cccc(O)c2)n1 [Compound 32]
[1]; [7]
  EC50: > 50 µg/mL
[1]; PR8, MDCK cells
  EC90: > 50 µg/mL
[2]
  Toxicity LD50 (MTT): >50 µg/mL

## CC(=O)Oc1ccccc1C(=O)Nc1ncc(S(=O)(=O)c2ccc([N+](=O)[O-])cc2)s1 [Compound 51]
[1]; [7]
  EC50: 3.5 µg/mL (≈ 7.82 µM)
[1]; PR8, MDCK cells
  EC90: 9 µg/mL (≈ 20.1 µM)
[2]
  Toxicity LD50 (MTT): 30 µg/mL

## CC(=O)Oc1ccccc1C(=O)Nc1nc(S(C)(=O)=O)cs1 [Compound 27]
[1]; [8]
  EC50: 0.1 µg/mL (≈ 0.294 µM)
[1]; [7]
  EC50: 0.1 µg/mL (≈ 0.294 µM)
[1]; PR8, MDCK cells
  EC90: 0.8 µg/mL (≈ 2.35 µM)
  potency relative to NTZ and TIZ: 10 times
[1]
  antiviral activity against PR8, overall rating: potent and selective
[6]
  CC50: > 50 µg/mL
[2]
  Toxicity LD50 (MTT): >50 µg/mL

## CS(=O)(=O)c1cnc(NC(=O)c2cccc(O)c2)s1 [Compound 66]
[1]; [7]
  EC50: > 50 µg/mL
[1]; PR8, MDCK cells
  EC90: > 50 µg/mL
[2]
  Toxicity LD50 (MTT): >50 µg/mL

## CC(=O)Oc1ccccc1C(=O)Nc1nc(S(=O)(=O)C2CCCCC2)cs1 [Compound 38]
[1]; [7]
  EC50: 25 µg/mL (≈ 61.2 µM)
[1]; PR8, MDCK cells
  EC90: > 50 µg/mL
[2]
  Toxicity LD50 (MTT): >50 µg/mL

## CC(=O)Oc1ccccc1C(=O)Nc1ncc(S(C)(=O)=O)s1 [Compound 52]
[1]; [7]
  EC50: 30 µg/mL (≈ 88.1 µM)
[1]; PR8, MDCK cells
  EC90: > 50 µg/mL
[2]
  Toxicity LD50 (MTT): >50 µg/mL

## CS(=O)(=O)c1cnc(NC(=O)c2ccccc2O)s1 [Compound 53]
[1]; [7]
  EC50: 10 µg/mL (≈ 33.5 µM)
[1]; PR8, MDCK cells
  EC90: > 50 µg/mL
[2]
  Toxicity LD50 (MTT): >50 µg/mL

## CS(=O)(=O)c1csc(NC(=O)c2ccccc2O)n1 [Compound 28]
[1]; [8]
  EC50: 0.1 µg/mL (≈ 0.335 µM)
[1]; [7]
  EC50: 0.1 µg/mL (≈ 0.335 µM)
[1]; PR8, MDCK cells
  EC90: 0.7 µg/mL (≈ 2.35 µM)
  potency relative to NTZ and TIZ: 10 times
[1]
  antiviral activity against PR8, overall rating: potent and selective
[6]
  CC50: > 50 µg/mL
[2]
  Toxicity LD50 (MTT): >50 µg/mL
